Source: ChEMBL document CHEMBL5113377, “Development of Selective FXIa Inhibitors Based on Cyclic Peptides and Their Application for Safe Anticoagulation” (J Med Chem, 2021)
*1 amine or outer side, *2 acyl side, *3 side chain or, on linkers, in order; H or OH if unused. Where a SMILES comes first, the peptide text is derived from it. Bridges are numbered along the chain shown (N, C = ends). CH2COCH2 = O=C(C[*:1])C[*:2]; X1 = C(=C\C[*:2])/C[*:1]

Legend:
Coagulation factor XI = Coagulation factor XI (Homo sapiens, UniProt P03951); test: Inhibition of biotinylated human FXIa assessed as inhibition of p-nitroaniline release using Pyr-Pro-Arg-pNA as substrate measured for 20 mins
Sequence of Coagulation factor XI (P03951 19-387 limits assumed): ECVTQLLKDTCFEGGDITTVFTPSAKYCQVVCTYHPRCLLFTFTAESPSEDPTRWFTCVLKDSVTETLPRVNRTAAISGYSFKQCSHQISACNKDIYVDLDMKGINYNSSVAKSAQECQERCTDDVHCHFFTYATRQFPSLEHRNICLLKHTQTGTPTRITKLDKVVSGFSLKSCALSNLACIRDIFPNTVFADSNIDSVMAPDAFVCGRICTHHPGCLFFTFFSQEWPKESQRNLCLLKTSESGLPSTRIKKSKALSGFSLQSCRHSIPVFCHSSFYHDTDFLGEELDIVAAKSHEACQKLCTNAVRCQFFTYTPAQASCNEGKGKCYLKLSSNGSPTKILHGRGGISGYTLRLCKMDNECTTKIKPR
Sequence of Coagulation factor XI (P03951 388-625 limits assumed): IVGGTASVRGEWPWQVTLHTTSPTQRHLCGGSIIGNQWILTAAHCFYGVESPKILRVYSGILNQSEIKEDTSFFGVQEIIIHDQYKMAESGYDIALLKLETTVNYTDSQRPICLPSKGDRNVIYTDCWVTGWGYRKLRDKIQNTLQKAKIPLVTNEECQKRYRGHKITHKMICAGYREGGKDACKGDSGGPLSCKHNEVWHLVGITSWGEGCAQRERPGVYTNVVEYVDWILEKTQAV

Plasma [1] = test: Anticoagulant activity in CaCl2-activated human plasma assessed as fold prolongation of activated partial thromboplastin time at 30 uM relative to control; type: functional
Plasma [2] = test: Anticoagulant activity in rabbit plasma assessed as prolongation of activated partial thromboplastin time; type: functional, Oryctolagus cuniculus
Homo sapiens [3] = species on record: Homo sapiens; test: Selectivity for biotinylated human FXIa over plasmin (unknown origin)
[4] = Stability in human plasma assessed as half life at 40 uM measured for 48 hrs; type: ADME, cell-free
Homo sapiens [5] = species on record: Homo sapiens; test: Selectivity for biotinylated human FXIa over tPA (unknown origin)
Homo sapiens [6] = species on record: Homo sapiens; test: Selectivity for biotinylated human FXIa over thrombin (unknown origin)
Homo sapiens [7] = species on record: Homo sapiens; test: Selectivity for biotinylated human FXIa over trypsin (unknown origin)
Homo sapiens [8] = species on record: Homo sapiens; test: Selectivity for biotinylated human FXIa over plasma kallikrein (unknown origin)
Plasma [9] = test: Anticoagulant activity in CaCl2-activated human plasma assessed as prolongation of activated partial thromboplastin time; type: functional
Blood [10] = test: Anticoagulant activity in human whole blood assessed as activated clotting time; type: functional
Homo sapiens [11] = species on record: Homo sapiens; test: Selectivity for biotinylated human FXIa over beta-FXIIa (unknown origin)
Homo sapiens [12] = species on record: Homo sapiens; test: Selectivity for biotinylated human FXIa over uPA (unknown origin)
Plasma [13] = test: Anticoagulant activity in CaCl2-activated human plasma assessed as concentration required to achieve 5.1 fold prolongation of activated partial thromboplastin time; type: functional
Blood [14] = test: Anticoagulant activity in human blood assessed as concentration required to achieve the effects achieved with minimal therapeutic dose of UFH for prolongation of aPTT; type: functional
Plasma [15] = test: Anticoagulant activity in CaCl2-activated human plasma assessed as concentration required to achieve 1.6 fold prolongation of activated partial thromboplastin time; type: functional

Ki (Coagulation factor XI) [nM]	Structure (SMILES)	fold change (FC) (Plasma [1])	EC2 (Plasma [9]) [µM]	further results
270	CC(C)[C@@H]1NC(=O)[C@H](CCCNC(=N)N)NC(=O)[C@H](C)NC(=O)[C@H](CC(N)=O)NC(=O)[C@H](CO)NC(=O)[C@@H](NC(=O)[C@H](CO)NC(=O)CNC(=O)[C@H](CCC(N)=O)NC(=O)[C@H](C)NC(=O)[C@H](CCCNC(=N)N)NC(=O)[C@H](CCCNC(=N)N)NC(=O)[C@@H]2CSCc3cccc(n3)CSC[C@@H](NC(=O)[C@@H](N)CO)C(=O)N2)CSCc2cccc(n2)CSC[C@@H](C(=O)N[C@@H](Cc2cnc[nH]2)C(=O)O)NC(=O)[C@H](C(C)C)NC1=O	1.9	–	–
0.9	CC[C@H](C)[C@@H]1NC(=O)[C@H](CCCNC(=N)N)NC(=O)[C@H]([C@@H](C)O)NC(=O)[C@H](CC(C)C)NC(=O)[C@H](C)NC(=O)[C@H](CO)NC(=O)[C@@H](NC(=O)[C@H](CCCNC(=N)N)NC(=O)[C@H](CCCNC(=N)N)NC(=O)[C@@H](NC(=O)[C@H](C)NC(=O)[C@H](CCCCN)NC(=O)[C@@H]2CSCc3cccc(n3)CSC[C@@H](NC(=O)[C@@H](N)CCC(N)=O)C(=O)N2)C(C)C)CSCc2cccc(n2)CSC[C@@H](C(=O)N2CCC[C@H]2C(=O)O)NC(=O)[C@H](C(C)C)NC1=O	2.7	2.9	EC2 (Plasma [2]): 2 µM; Selectivity ratio (Homo sapiens [3]): > 1000; half-life at 40 µM [4]: 7.6 h; Selectivity ratio (Homo sapiens [5]): > 1000; Selectivity ratio (Homo sapiens [6]): > 1000; Selectivity ratio (Homo sapiens [7]): > 1000; Selectivity ratio (Homo sapiens [8]): > 1000; EC1.5 (Blood [10]): 12 µM; Selectivity ratio (Homo sapiens [11]): > 1000; Selectivity ratio (Homo sapiens [12]): > 1000
100	CSCC[C@H](NC(=O)[C@H](CO)NC(=O)[C@@H](NC(=O)[C@H](CCCNC(=N)N)NC(=O)[C@H](CCC(N)=O)NC(=O)[C@H](CCC(N)=O)NC(=O)[C@@H]1CSCC(=O)CSC[C@H](NC(=O)[C@@H](N)CC(C)C)C(=O)N[C@@H](CO)C(=O)N[C@@H](CO)C(=O)N2CCC[C@H]2C(=O)N[C@@H](CO)C(=O)N1)[C@@H](C)O)C(=O)N[C@H]1CSCC(=O)CSC[C@H](C(=O)N2CCC[C@H]2C(=O)O)NC(=O)[C@H](CCCNC(=N)N)NC(=O)[C@H](Cc2ccc(O)cc2)NC1=O	1.9	–	–
7.7	CC(C)C[C@H](NC(=O)[C@@H](NC(=O)[C@@H]1CSC/C=C/CSC[C@H](NC(=O)[C@@H](N)CCC(=O)O)C(=O)N[C@@H](CCCCN)C(=O)N[C@@H]([C@@H](C)O)C(=O)N2CCC[C@H]2C(=O)N[C@@H](CCCNC(=N)N)C(=O)N[C@@H](CCC(=O)O)C(=O)N1)[C@@H](C)O)C(=O)N[C@H](C(=O)N[C@@H](CCCNC(=N)N)C(=O)N[C@H]1CSC/C=C/CSC[C@@H](C(=O)N[C@@H](CCC(=O)O)C(=O)O)NC(=O)[C@H](CO)NC(=O)[C@H](Cc2cnc[nH]2)NC(=O)[C@H](C(C)C)NC1=O)[C@@H](C)O (H-ECKTPRECTLTRCVHSCE-OH; linker 2-8, 13-17 via X1)	2	–	–
260	CSCC[C@@H]1NC(=O)CNC(=O)[C@H](CCCNC(=N)N)NC(=O)[C@@H](NC(=O)CN)CSCC(=O)CSC[C@@H](C(=O)N[C@H](C(=O)N[C@@H](CCCNC(=N)N)C(=O)N[C@H](C(=O)N[C@@H](CO)C(=O)N2CCC[C@H]2C(=O)N[C@@H](Cc2ccccc2)C(=O)N[C@H]2CSCC(=O)CSC[C@@H](C(=O)N3CCC[C@H]3C(=O)O)NC(=O)[C@H](CCCNC(=N)N)NC(=O)[C@H](C)NC2=O)[C@@H](C)O)C(C)C)NC(=O)[C@H](CO)NC1=O (H-GCRGMSCVRTSPFCARCP-OH; linker 2-7, 14-17 via CH2COCH2)	2.4	–	–
2.6	CC[C@H](C)[C@@H]1NC(=O)[C@H](CCCNC(=N)N)NC(=O)[C@H]([C@@H](C)O)NC(=O)[C@H](CC(C)C)NC(=O)[C@H](C)NC(=O)[C@H](CO)NC(=O)[C@@H](NC(=O)[C@H](CCCNC(=N)N)NC(=O)[C@H](CCCNC(=N)N)NC(=O)[C@@H](NC(=O)[C@H](C)NC(=O)[C@H](CCCCN)NC(=O)[C@H](CO)NC(=O)[C@H](CO)NC(=O)[C@@H](N)CCC(N)=O)C(C)C)CSSC[C@@H](C(=O)N2CCC[C@H]2C(=O)O)NC(=O)[C@H](C(C)C)NC1=O (H-QSSKAVRRCSALTRIVCP-OH; disulfide 9-17)	–	4.9	–
2.4	CC[C@H](C)[C@@H]1NC(=O)[C@H](CCCNC(=N)N)NC(=O)[C@H]([C@@H](C)O)NC(=O)[C@H](CC(C)C)NC(=O)[C@H](C)NC(=O)[C@H](CO)NC(=O)[C@@H](NC(=O)[C@H](CCCNC(=N)N)NC(=O)[C@H](CCCNC(=N)N)NC(=O)[C@@H](NC(=O)[C@H](C)NC(=O)[C@H](CCCNC(=N)N)NC(=O)[C@H](CO)NC(=O)[C@H](CO)NC(=O)[C@@H](N)CCC(N)=O)C(C)C)CSSC[C@@H](C(=O)N2CCC[C@H]2C(=O)O)NC(=O)[C@H](C(C)C)NC1=O (H-QSSRAVRRCSALTRIVCP-OH; disulfide 9-17)	–	3.1	–
2.8	CC[C@H](C)[C@@H]1NC(=O)[C@H](CCCNC(=N)N)NC(=O)[C@H]([C@@H](C)O)NC(=O)[C@H](CC(C)C)NC(=O)[C@H](C)NC(=O)[C@H](CO)NC(=O)[C@@H](NC(=O)[C@H](CCCNC(=N)N)NC(=O)[C@H](CCCNC(=N)N)NC(=O)[C@@H](NC(=O)[C@H](C)NC(=O)[C@@H](N)CCCNC(=N)N)C(C)C)CSSC[C@@H](C(=O)N2CCC[C@H]2C(=O)O)NC(=O)[C@H](C(C)C)NC1=O (H-RAVRRCSALTRIVCP-OH; disulfide 6-14)	–	1.5	Activity (Plasma [13]): 45 µM; Activity (Blood [14]): 0.77 µM; Activity (Plasma [15]): 0.34 µM
62	CC(C)C[C@@H]1NC(=O)CNC(=O)[C@H](CCC(N)=O)NC(=O)[C@@H](NC(=O)[C@@H](N)CCCNC(=N)N)CSCC(=O)CSC[C@@H](C(=O)N[C@@H](Cc2ccccc2)C(=O)N[C@H](C(=O)N[C@@H](CO)C(=O)N[C@@H](CC(N)=O)C(=O)N[C@@H](CCCCN)C(=O)N[C@@H](Cc2ccc(O)cc2)C(=O)N[C@H]2CSCC(=O)CSC[C@@H](C(=O)N3CCC[C@H]3C(=O)O)NC(=O)[C@H](CCCNC(=N)N)NC(=O)[C@H](C)NC2=O)[C@@H](C)O)NC(=O)[C@H](Cc2c[nH]c3ccccc23)NC1=O (H-RCQGLWCFTSNKYCARCP-OH; linker 2-7, 14-17 via CH2COCH2)	3.2	–	–
72	CC[C@H](C)[C@@H]1NC(=O)[C@@H](NC(=O)[C@H](CCCNC(=N)N)NC(=O)[C@@H](NC(=O)[C@H](CC(C)C)NC(=O)[C@@H](NC(=O)[C@@H]2CSC/C=C/CSC[C@H](NC(=O)[C@@H](N)CO)C(=O)N[C@@H](CCC(=O)O)C(=O)N[C@@H]([C@@H](C)O)C(=O)N3CCC[C@H]3C(=O)N[C@@H](CCC(N)=O)C(=O)N[C@@H](C)C(=O)N2)[C@@H](C)O)[C@@H](C)O)CSC/C=C/CSC[C@@H](C(=O)N[C@@H](CC(N)=O)C(=O)O)NC(=O)[C@H](CCC(N)=O)NC(=O)[C@H]([C@@H](C)O)NC1=O (H-SCETPQACTLTRCITQCN-OH; linker 2-8, 13-17 via X1)	1.7	–	–
31	CC(C)C[C@@H]1NC(=O)[C@H](CCC(N)=O)NC(=O)[C@@H]2CCCN2C(=O)[C@@H](NC(=O)[C@@H](N)CO)CSC/C=C/CSC[C@@H](C(=O)N[C@@H](CO)C(=O)N[C@@H](CCCNC(=N)N)C(=O)N[C@H](C(=O)N[C@@H](CCCNC(=N)N)C(=O)N[C@H]2CSC/C=C/CSC[C@@H](C(=O)N[C@@H](CO)C(=O)O)NC(=O)[C@H](CC(=O)O)NC(=O)[C@H](CC(C)C)NC(=O)[C@H](C(C)C)NC2=O)[C@@H](C)O)NC(=O)[C@H](Cc2ccc(O)cc2)NC(=O)[C@H](CCC(=O)O)NC1=O (H-SCPQLEYCSRTRCVLDCS-OH; linker 2-8, 13-17 via X1)	1.6	–	–
